Data published in patent publication US12161675B2, “Production method for culture supernatant preparation” (LABORATORY OF CELL APPLIED TECHNOLOGIES, CO, priority 2018, dated 2024).

Tests used:
[1] = Storage stability of freeze-dried culture supernatant (VEGF protein by ELISA); type: physicochemical; conditions: for Value of VEGF relative quantification at each storage temperature: trehalose 250 mM
Description: As was in Example 5, the culture supernatant after 48 hours in the second culturing step was recovered and the culture supernatant obtained by centrifugal separation (740G, 5 minutes) was divided into 2 groups, a no addition group and a group with addition of 250 mM trehalose (manufactured by Hayashibara Co., Ltd.). Subsequently, the culture supernatant was passed through a filtration filter (KURABO INDUSTRIES Ltd.) having a membrane pore diameter of 0.2 micrometers and aliquoted into syringes (Terumo Corp.). The syringes were sealed in sterile bags, frozen in a −80° C. freezer, and then transferred to the inside of the freeze-drying device (Yamato Scientific Co., Ltd.) to perform freeze drying. After the completion of freeze drying, the syringes were sealed with luer caps for syringe (Terumo Corp.). The freeze-dried samples were stored in a sealed state under three temperature conditions of −80° C., 4° C., and 25° for 3 weeks. After 3 weeks, the freeze-dried samples were resuspended in water for injection (manufactured by Otsuka Pharmaceutical Co., Ltd.) and protein quantification was performed using QUANTIKINE ELISA Human VEGF (manufactured by R&D Systems, Inc.). As a quantitative value, a relative quantitative value of the VEGF protein at each storage temperature was calculated by taking a quantitative value of the VEGF protein included in the culture supernatant stored at −80° C. for 3 weeks as a reference.

VEGF gene = VEGF gene expression by real-time PCR in adipose tissue-derived mesenchymal stromal cells (ASC); type: cell-based, human; conditions: 48 hours; for Value of mRNA relative quantification (VEGF): 0 ng/mL = 1.00
Description: (§1) Adipose tissue-derived mesenchymal stromal cells extracted by subjecting normal human adipose tissues to an enzyme treatment were cultured using a DME medium (Dulbecco's modified eagle medium manufactured by Gibco, high glucose) including 20% fetal bovine serum (FBS) in a non-treated culture flask (manufactured by FALCON) as primary culture. The primary culture cells right before confluency were recovered by an enzyme treatment, seeded on a non-treated 12-well culture plate (manufactured by Sumitomo Bakelite Co., Ltd.) using the same medium, and cultured until becoming confluent.
After confirming that the cells became confluent, the medium was removed and the cell surface was rinsed with PBS (Dulbecco's phosphate buffered saline manufactured by DS Pharma Biomedical Co., Ltd.).
(§2) After rinsing the cells, the medium was replaced with an FBS-free DME medium or HBSS (Hanks' balanced salt solution manufactured by Sigma-Aldrich Co.)-HEPES. Subsequently, 12 wells were divided into 4 groups each consisting of 3 wells, and the FBS-free DME medium was cultured in a 5% CO2 incubator (Reference example) and HBSS-HEPES was cultured in an incubator (Example). The culture supernatant in each well was recovered immediately after replacement (0 hours) and 3 hours, 6 hours, 24 hours, and 48 hours thereafter.
After recovering the culture supernatant as described above, an RNA extraction solution ISOGEN (Nippon Gene Co., Ltd., No. 319-90211) was added to each well in an amount of 400 microliters and the total RNAs were extracted from the cells in accordance with a conventional method. The precipitate of the total RNAs obtained by using Ethachinmate (Nippon Gene Co., Ltd., No. 312-01791) was dissolved in nuclease-free water. The concentration of the total RNAs was measured using 1.5 microliters of the dissolved RNAs by NanoDrop (Thermo Fisher Scientific). One hundred nanograms of the total RNAs thus obtained were used to synthesize complementary DNA using an iScript cDNA synthesis kit (Bio-Rad Laboratories, Inc., No. 1708891), and the resulting complementary DNA was used for quantifying an expression level of each gene by real-time PCR (Rotor-Gene Q manufactured by QIAGEN).
The synthesized DNA, primers (QuantiTect Primer Assay, QIAGEN) specific for the gene to be detected and quantified, and a real-time PCR agent (RotorGene SYBR Green, QIAGEN) were mixed, and real-time PCR was performed by using the Rotor-Gene Q system (QIAGEN) to amplify fragments of the gene to be detected and quantified. In this operation, primers specific for β-Actin as a housekeeping gene were used for amplification in the same manner, and this amplification curve was used as a reference to relatively calculate a quantitative value of the gene desired to be detected and quantified. […]

VEGF protein = VEGF protein in ASC culture supernatant by QUANTIKINE ELISA; type: cell-based, human; conditions: 48 hours; for VEGF concentration: ASC culture supernatant, 0 ng/mL gave 199.5
Description: as §1, §2
The culture supernatant recovered as described in cell culture and recovery of culture supernatant was passed through a filter having a diameter of 0.22 micrometers to prepare a sample for protein quantification.
Protein quantification of the sample was performed by using the QUANTIKINE ELISA (Human VEGF, FGF-2) kit from R&D Systems, Inc. and a quantitative value of each protein was obtained in accordance with the protocol of the kit.
The rinsed cells were divided into 4 groups each consisting of 3 wells and their culture media were replaced with HBSS-HEPES added with PGE1 (Prostandin manufactured by Maruishi Pharmaceutical. Co., Ltd.) at a concentration of 0 ng/ml, 4 ng/ml, 40 ng/ml, and 400 ng/ml, followed by culturing in an incubator (Example). At 48 hours after the replacement, the culture supernatant was recovered from each well and subjected to protein quantification using QUANTIKINE ELISA Human VEGF (manufactured by R&D Systems, Inc.). […] The complementary DNA was used to relatively quantify the VEGF gene expression level by real-time PCR (Rotor-Gene Q manufactured by QIAGEN).
After rising, three groups were each added with 3 mL, 2 mL, or 1 mL of HBSS (Hanks' balanced salt solution manufactured by Sigma-Aldrich Co.)-HEPES pH7.4 and cultured for 48 hours in an incubator (Example). Subsequently, each culture supernatant was recovered in a 5 mL tube (manufactured by BD Falcon) and the VEGF protein was quantified by using QUANTIKINE ELISA Human VEGF (manufactured by R&D Systems, Inc.). […] Then, the complementary DNA was used to relatively quantify the VEGF gene expression level by real-time PCR (Rotor-Gene Q manufactured by QIAGEN). […]

[2] = ASC, HBSS-HEPES with PGE1 0 to 400 ng/ml

SMILES | Value of VEGF relative quantification at each storage temperature ([1]; freeze-dried culture supernatant stored 3 weeks at 4° C., relative to −80° C.) | Value of VEGF relative quantification at each storage temperature ([1]; freeze-dried culture supernatant stored 3 weeks at 25° C., relative to −80° C.) | Value of VEGF relative quantification at each storage temperature ([1]; freeze-dried culture supernatant stored 3 weeks at −80° C. (reference)) | VEGF protein after storage of freeze-dried culture supernatant ([1]; stored 3 weeks under the environment of 25° C., trehalose final concentration 250 mM) | Value of mRNA relative quantification (VEGF) (VEGF gene; ASC in HBSS-HEPES with PGE1 4 ng/mL) | Value of mRNA relative quantification (VEGF) (VEGF gene; ASC in HBSS-HEPES with PGE1 40 ng/mL) | Value of mRNA relative quantification (VEGF) (VEGF gene; ASC in HBSS-HEPES with PGE1 400 ng/mL) | relative quantitative value of the mRNA expression level (VEGF) (VEGF gene; [2]) | VEGF concentration (VEGF protein; HBSS-HEPES with PGE1 4 ng/mL) [pg/mL] | VEGF concentration (VEGF protein; HBSS-HEPES with PGE1 40 ng/mL) | VEGF concentration (VEGF protein; HBSS-HEPES with PGE1 400 ng/mL) [pg/mL] | protein amount (VEGF) in culture supernatant (VEGF protein; [2])
OC[C@H]1O[C@H](O[C@H]2O[C@H](CO)[C@@H](O)[C@H](O)[C@H]2O)[C@H](O)[C@@H](O)[C@@H]1O [Trehalose, trehalose] | 0.96 | 0.73 | 1.00 | suppressed the reduction | – | – | – | – | – | – | – | –
CCCCC[C@H](O)/C=C/[C@H]1[C@H](O)CC(=O)[C@@H]1CCCCCCC(=O)O [PGE1] | – | – | – | – | 0.88 | 1.04 | 0.97 | remained substantially constant | 201.8 | 281. 5 pg/mL | 299.0 | tended to increase
